Measured values as given in patent US10457710B2, “Antimicrobial peptides, their variants and uses” (priority 2015, dated 2019).
Where a SMILES comes first, the peptide text is derived from it. [ ]: non-standard residue; d: D form.

Tests used:
MRSA strains = test: MIC, synergistic activity with Ertapenem (4 μg/ml); assay type: cell-based, S. aureus; conditions: Ertapenem 4 μg/ml; D-peptide
Method: Peptides Chain 104, Chain 105, Chain 201, Chain 308, Chain 310 were tested against antibiotic-sensitive strains of S. aureus RN4220 and methicillin resistant strains of S. aureus COL (MRSA). Chain peptides comprising of either L- or D-form amino acids were tested against these bacteria, and the D-form peptides were found have better activity compared to L-form (Table 6). Synergistic activity of chain peptides along with Ertapenem (4 μg/ml) was tested to know whether it will influence the activity against MRSA strains. […] Chain 310 has the best antibacterial activity against the MRSA strains with a MIC of 0.06 & 0.03 μg/ml along with Ertapenem (4 μg/ml) for both forms of L and D-peptides (Table 6).

[1] = tested on: Escherichia coli (ATCC 25922), Staphylococcus aureus (ATCC 25923), Klebsiella pneumoniae (ATCC 10031) and Pseudomonas aeruginosa (ATCC 27853); test: Radial diffusion assay, four ATCC bacterial strains together; assay type: cell-based; conditions: Gentamicin 5 μg
Method: (§1) The radial diffusion assay (RDA) was carried out as described by Andersen et al. (2010). Briefly, 30 ml of 1/10 Muller-Hinton broth (MHB) supplemented with 1% agarose and 5.0×10^5 CFU/ml S. aureus or E. coli or K. pneumoniae, P. aeruginosa cells was poured into a single-well omnitray (Nunc) and overlaid with a TSP 96-well plate. One hundred μg of each synthesized peptide was tested. The peptides were also tested against Fusarium oxysporum and Verticillium dahliae, for which ⅓ potato dextrose agarose was used. To test the synergistic effect of peptides, each peptide was mixed in equimolar concentrations. Mix1 (met1-12), Mix2 (met3, 4 and 5), Mix3 (met 8, 9 and 10), Mix 4 (met11, 12) and Mix5 (8, 9, 10, 11, 12) were prepared and tested against E. coli and S. aureus. Gentamicin and vancomycin were included as positive controls for bacteria and amphotericin B was used as the control for fungi.
By using rational design techniques, we have designed variants of peptides by incorporating or replacing various amino acids in the original peptides. Thus, we have designed and modified Chain 100, Chain 200 and Chain 300 with tryptophan (W), arginine (R) and lysine (K) at various positions to improve antimicrobial activity (FIGS. 4a-c and 5a-c). In some peptides we have also used other amino acids such as Leucine (L), Cysteine (C), Isoleucine (I), Phenylalanine (F) and Alanine (A). […]

[2] = tested on: Pseudomonas aeruginosa (ATCC 27853); test: Radial diffusion assay (RDA); assay type: cell-based; conditions: Peptides 50 μg, Gentamycin 5 μg; diameter including the wells
Method: as §1, with “One hundred μg of each synthesized peptide was tested.” left out

[3] = tested on: Escherichia coli (ATCC 25922); test: Radial diffusion assay (RDA); assay type: cell-based; conditions: Peptides 50 μg, Gentamycin 5 μg; diameter including the wells
Method: as §1, with “One hundred μg of each synthesized peptide was tested.” left out

[4] = tested on: Staphylococcus aureus (ATCC 25923); test: Radial diffusion assay (RDA); assay type: cell-based; conditions: Peptides 50 μg, Gentamycin 5 μg; diameter including the wells
Method: as §1, with “One hundred μg of each synthesized peptide was tested.” left out

[5] = tested on: Klebsiella pneumoniae (ATCC 10031); test: Radial diffusion assay (RDA); assay type: cell-based; conditions: Peptides 50 μg, Gentamycin 5 μg; diameter including the wells
Method: as §1, with “One hundred μg of each synthesized peptide was tested.” left out

[6] = tested on: Pseudomonas aeruginosa (ATCC 27853); test: MIC, micro broth dilution assay; assay type: cell-based
Method: (§2) Minimum inhibition concetrations (MICs) were determined against Escherichia coli (ATCC 25922), Staphylococcus aureus (ATCC 25923), Klebsiella pneumoniae (ATCC 10031) and Pseudomonas aeruginosa (ATCC 27853). Also clinical strains of E. coli, K. pneumoniae, E. cloacae, P. aeruginosa, Serratia marcescens, Proteus mirabilis, S. pneumoniae, Acinetobacter baumannii, A. johnsonii and S. aureus were used for MICs assays. Additionally, clinical strains of yeast including Candida albicans, C. glabrata, C. parapsilosis and C. quillermondiae were used. The susceptibility of these microorganisms to Chain peptides were determined using micro broth dilution assay. Colonies of the respective microorganism from Muller Hinton (MH) agar plates incubated overnight were suspended in MH broth media and final concentration of microorganism was adjusted to 5.0×10^5 cfu/ml. An aliquot of 10 μl of each Chain peptide, or gentamicin, tetracycline as reference antibiotics were added in differing concentrations along with 90 μl of bacterial suspension to 96 well polypropylene plates and incubated at 37° C. for 20 to 24 hours. […] Similarly, antifungal MICs were tested in Potato dextrose broth.

[7] = tested on: Escherichia coli (ATCC 25922); test: MIC, micro broth dilution assay; assay type: cell-based
Method: as §2

[8] = tested on: Staphylococcus aureus (ATCC 25923); test: MIC, micro broth dilution assay; assay type: cell-based
Method: as §2

[9] = tested on: Klebsiella pneumoniae (ATCC 10031); test: MIC, micro broth dilution assay; assay type: cell-based
Method: as §2

| Molecule | MIC against the MRSA strains along with Ertapenem (MRSA strains) | zone of inhibition, four ATCC strains [1] | Inhibition zone, Pseudomonas aeruginosa [2] | Inhibition zone, Escherichia coli [3] | Inhibition zone, Staphylococcus aureus [4] | Inhibition zone, Klebsiella pneumoniae [5] | Minimum inhibitory concentration, Pseudomonas aeruginosa (ATCC 27853) [6] | Minimum inhibitory concentration, Escherichia coli (ATCC 25922) [7] | Minimum inhibitory concentration, Staphylococcus aureus (ATCC 25923) [8] | Minimum inhibitory concentration, Klebsiella pneumoniae (ATCC 10031) [9] |
| --- | --- | --- | --- | --- | --- | --- | --- | --- | --- | --- |
| CC(C)C[C@@H](NC(=O)[C@@H](CCCCN)NC(=O)[C@@H](CCCCN)NC(=O)[C@@H](Cc1ccccc1)NC(=O)[C@@H](CC(C)C)NC(=O)[C@@H](Cc1c[nH]c2ccccc12)NC(=O)[C@@H](CCCNC(=N)N)NC(=O)[C@@H](Cc1c[nH]c2ccccc12)NC(=O)[C@@H](CCCCN)NC(=O)[C@@H](CCCNC(=N)N)NC(=O)[C@H](N)CCCCN)C(=O)O [Chain310D] (H-[dK][dR][dK][dW][dR][dW][dL][dF][dK][dK][dL]-OH) | 0.03 µg/mL | – | – | – | – | – | – | – | – | – |
| Gentamicin [reference compound] | – | 22-24 mm | 24 mm | 22 mm | 24 mm | 22 mm | 0.25 µg/mL | 1 µg/mL | 0.25 µg/mL | 0.25 µg/mL |
